Non-standard residues stand in square brackets, D forms with d. Residues, ends and D or L forms follow the SMILES beside them. *: point of attachment. Benzoyl(4-tBu) = CC(C)(C)c1ccc(C(=O)*)cc1; Lys(Et2) = CCN(CC)CCCC[C@H](N)C(=O)O; Cbz = O=C(OCc1ccccc1)*; Boc = CC(C)(C)OC(=O)*
What was measured:
Peregrin (Homo sapiens) = biological target: T1, Peregrin (Homo sapiens) (UniProt P55201); conditions: Compound concentration 20.0 uM
T1 sequence (whole entry): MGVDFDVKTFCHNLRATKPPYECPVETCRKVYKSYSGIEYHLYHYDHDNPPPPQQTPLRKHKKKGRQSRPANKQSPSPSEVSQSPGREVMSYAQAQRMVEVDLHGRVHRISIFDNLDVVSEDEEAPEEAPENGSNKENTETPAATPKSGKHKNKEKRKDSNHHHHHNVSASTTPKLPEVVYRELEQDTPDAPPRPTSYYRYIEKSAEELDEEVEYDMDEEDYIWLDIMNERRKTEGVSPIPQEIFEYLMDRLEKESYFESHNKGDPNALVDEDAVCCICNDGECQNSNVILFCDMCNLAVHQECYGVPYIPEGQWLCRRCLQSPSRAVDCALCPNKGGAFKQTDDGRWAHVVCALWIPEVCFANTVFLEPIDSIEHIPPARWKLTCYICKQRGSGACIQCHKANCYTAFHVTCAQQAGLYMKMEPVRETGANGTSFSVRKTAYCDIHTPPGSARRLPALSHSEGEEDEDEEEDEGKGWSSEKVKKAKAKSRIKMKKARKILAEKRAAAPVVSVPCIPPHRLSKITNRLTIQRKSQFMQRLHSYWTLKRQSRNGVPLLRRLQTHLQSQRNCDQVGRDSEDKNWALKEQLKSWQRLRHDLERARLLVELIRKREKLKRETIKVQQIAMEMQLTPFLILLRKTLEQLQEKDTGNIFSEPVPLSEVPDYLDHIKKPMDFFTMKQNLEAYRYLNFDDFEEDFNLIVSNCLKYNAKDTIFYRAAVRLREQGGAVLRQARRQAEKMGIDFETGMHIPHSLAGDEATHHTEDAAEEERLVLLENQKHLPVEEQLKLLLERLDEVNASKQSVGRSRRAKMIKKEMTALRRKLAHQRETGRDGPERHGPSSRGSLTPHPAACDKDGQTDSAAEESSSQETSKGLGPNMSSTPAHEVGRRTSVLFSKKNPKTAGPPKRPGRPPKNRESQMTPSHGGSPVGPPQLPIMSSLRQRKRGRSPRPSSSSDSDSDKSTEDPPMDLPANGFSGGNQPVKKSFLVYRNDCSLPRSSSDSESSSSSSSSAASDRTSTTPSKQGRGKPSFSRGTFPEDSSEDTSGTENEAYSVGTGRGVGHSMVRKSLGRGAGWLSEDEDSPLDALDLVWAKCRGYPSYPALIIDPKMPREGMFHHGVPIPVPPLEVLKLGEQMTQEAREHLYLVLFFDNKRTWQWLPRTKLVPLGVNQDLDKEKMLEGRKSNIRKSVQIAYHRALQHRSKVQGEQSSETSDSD

[1] = biological target: Fibroblast growth factor receptor 2 (Homo sapiens) (UniProt P21802); conditions: Compound concentration 20.0 uM
Fibroblast growth factor receptor 2 (Homo sapiens), sequence (P21802 22-821 limits assumed): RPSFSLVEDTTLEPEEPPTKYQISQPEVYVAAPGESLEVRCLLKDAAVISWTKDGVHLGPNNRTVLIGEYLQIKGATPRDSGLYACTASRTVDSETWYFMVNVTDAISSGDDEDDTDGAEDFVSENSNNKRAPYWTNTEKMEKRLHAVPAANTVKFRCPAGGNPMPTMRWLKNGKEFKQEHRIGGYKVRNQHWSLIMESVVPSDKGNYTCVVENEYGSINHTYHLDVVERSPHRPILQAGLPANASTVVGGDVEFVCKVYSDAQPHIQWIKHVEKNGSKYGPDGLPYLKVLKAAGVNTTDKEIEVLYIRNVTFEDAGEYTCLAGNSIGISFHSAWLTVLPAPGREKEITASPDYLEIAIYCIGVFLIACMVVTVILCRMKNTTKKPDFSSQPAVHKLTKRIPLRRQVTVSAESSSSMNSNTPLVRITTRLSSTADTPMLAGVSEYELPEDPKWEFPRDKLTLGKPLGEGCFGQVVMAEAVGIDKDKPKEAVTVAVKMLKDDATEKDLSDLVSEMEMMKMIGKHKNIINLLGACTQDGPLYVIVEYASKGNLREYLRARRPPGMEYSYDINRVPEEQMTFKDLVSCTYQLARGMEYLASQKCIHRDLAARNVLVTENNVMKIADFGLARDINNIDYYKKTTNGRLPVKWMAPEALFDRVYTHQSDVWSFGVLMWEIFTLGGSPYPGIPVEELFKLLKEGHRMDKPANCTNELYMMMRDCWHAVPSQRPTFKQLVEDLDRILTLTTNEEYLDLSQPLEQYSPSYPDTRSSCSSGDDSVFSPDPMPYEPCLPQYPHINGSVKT
Description: Thermal Shift Assay. Domain: start/stop: T457-E768

Row | SMILES | ΔTm (Peregrin (Homo sapiens)) [°C] | ΔTm [1] [°C]
1 | CC(C)C[C@@H](C=O)NC(=O)[C@@H](NS(=O)(=O)c1ccc(F)cc1)C(C)C | -1.65 | -0.07
2 | CCn1c(=O)c(C)cn(Cc2nnc(-c3ccc(F)c(O)c3F)s2)c1=O | -0.64 | 0.53
3 | Cc1cc(-n2cccc2)c(S(C)(=O)=O)cc1C(=O)N=C(N)N | 2.16 | -0.71
4 | CN1Cc2c(Cl)cc(Cl)cc2[C@H](c2cccc(S(=O)(=O)NCCOCCOCCNC(=O)NCCCCNC(=O)NCCOCCOCCNS(=O)(=O)c3cccc([C@@H]4CN(C)Cc5c(Cl)cc(Cl)cc54)c3)c2)C1 | 0.43 | -0.42
5 | c1ccc(Cn2c(-c3ccc(OC[C@H](C4CCNCC4)n4c(-c5ccccc5)nc5ccccc54)cc3)nc3ccccc32)cc1 | -5.25 | -8.18
6 | c1cncc(-c2cnn[nH]2)c1 | 0.36 | 0.33
7 | COc1ccc(N2CCN(C(=O)c3cc4c(s3)-c3ccccc3S(=O)(=O)C4)CC2)cc1 | 0 | 0.24
8 | CC(C)(Sc1ccncc1-c1ccc(C#N)c2ccccc12)C(=O)O | 0.05 | 0.42
9 | Cc1c(Nc2ccc(S(=O)(=O)N3CCN(C)CC3)cc2F)nc2ccc(-c3cnn(C4CC4)c3)cn2c1=O | 0.83 | -0.17
10 | CS(=O)(=O)n1cc2c(n1)CN([C@H]1CO[C@H](c3cc(F)ccc3F)[C@@H](N)C1)C2 | 1.17 | -0.38
11 | CC(C)(C)OC(=O)N1CCN(C(=O)n2cc(-c3ccc(OC(F)(F)F)cc3)nn2)C(Cc2ccccc2)C1 (configuration not stated) | 0.21 | -0.77
12 | CN(C(=O)CCCOc1ccc2[nH]c(=O)ccc2c1)C1CCCCC1 | 1.74 | -0.58
13 | COc1ccc(-c2ccc3c(c2)COC3=O)n2nc(C3(C(=O)OCC(C)C)CC3)nc12 | 0.76 | 0.71
14 | O=C1c2ccccc2C(=O)c2oc(-c3ccc(F)cc3)nc21 | -0.98 | 0.19
15 | COc1cc(O)cc(CN2CCc3c(cc(Cn4ccn(C)c4=N)cc3-c3ccc(F)cc3C)C2=O)c1 | -1.15 | -1.31
16 | O=CC1CCCN1C(=O)C1CCCN1C(=O)OCc1ccccc1 (stereo not drawn) (Cbz-Pro-Pro-aldehyde; configuration not given here) | -0.94 | 0.49
17 | CCCCCCCC(=O)N[C@H](CN1CCCC1)[C@H](O)c1ccc2c(c1)OCCO2 | 1.02 | 0.38
18 | CC(C)(C)OC(=O)NCCCCCN(CCc1ccccc1)C(=O)n1cc(-c2ccc(OC(F)(F)F)cc2)nn1 | 1.14 | -1.05
19 | CCCCCCNC(=O)n1cc(Cl)c(=O)n(C(=O)OCC(C)C)c1=O | 0.68 | 0.1
20 | Nc1ccc(-c2cccs2)cc1NC(=O)c1ccc(NC=O)cc1 | 2.98 | 0.02
21 | O=C(O)C1=CCCN(CCON=C(c2ccccc2)c2ccccc2)C1 | 0.57 | 0.48

Row | SMILES | ΔTm (Peregrin (Homo sapiens)) [°C] | ΔTm [1] [°C]
22 | C=CC(=O)Nc1cccc(-c2c[nH]cc2CN(C)CCN)c1 | -1.04 | 0.24
23 | CS(=O)(=O)c1ccc(Oc2cc(F)cc(C#N)c2)c2c1C(O)C(F)C2 (configuration not stated) | 0.86 | -0.57
24 | CC/C(=C(/c1ccc(/C=C/C(=O)O)cc1)c1ccc2[nH]ncc2c1)c1ccc(F)cc1Cl | 0 | -5.4
25 | O=C(N1CCCC[C@@H]1Cc1ccccc1)n1cc(-c2ccc(-c3ccccc3)cc2)nn1 | 0.6 | 0
26 | O=C(O)/C(S)=C/c1c[nH]c2ccc(F)cc12 | -0.77 | 0.66
27 | O=C(O)Cc1ccc(Cc2cc(-c3cccc(Cl)c3)nc(C(F)(F)F)c2)cc1 | -0.4 | -0.76
28 | CCN(c1cc(-c2ccc(CN3CCOCC3)cc2)cc(C(=O)NCc2c(C)cc(C)[nH]c2=O)c1C)C1CCOCC1 | -1.14 | 0.66
29 | CCNC(=O)c1cc2c(-c3cc(C(C)(C)O)ccc3Oc3c(C)cc(F)cc3C)cn(C)c(=O)c2[nH]1 | 1.94 | 0.28
30 | CNc1cc(-c2cccc(Cl)c2Cl)nc(N)n1 | 0.7 | -0.72
31 | O=C(NC1CCC1)c1ccc2nc(-c3cccc(NS(=O)(=O)NCCN4CCCCC4)c3)cn2c1 | 1.25 | -0.11
32 | Cn1ncc(-c2nn(C)c3ncnc(N4CCC4)c23)c1-c1ccc(C(F)(F)F)cc1 | 3.7 | 0.04
33 | C[C@@H](Oc1ccc(CNC(=O)c2cccnc2Oc2ccc3c(c2)OCO3)c(F)c1)C(=O)O | 3.08 | 0.14
34 | COc1cc2c(NC3CCN(C4CCCCC4)CC3)nc(N3CCCN(C(C)C)CC3)nc2cc1OCCCN1CCCCC1 | -1.05 | 0.34
35 | Cn1c(=O)cc(N2CCC[C@@H](N)C2)n(Cc2ccccc2C#N)c1=O | 2.35 | 0.81
36 | N#Cc1ccc(-c2csc(NN=C3CCCC3)n2)cc1 | -0.85 | 0.36
37 | C/C=C1\NC(=O)[C@H]2CSSCC/C=C/[C@H](CC(=O)N[C@H](C(C)C)C(=O)N2)OC(=O)[C@H](C(C)C)NC1=O | 0 | 0.1
38 | CCCCCCCCCCCCC/C=C/[C@@H](O)[C@H](CO)NC(=O)CCl | 0.52 | 0.03
39 | O=C(c1cc(Cl)c(O)c(Cl)c1)N1CS(=O)(=O)c2ccccc21 | 1.35 | 0.39
40 | O=C1c2ccccc2C(=O)c2oc(-c3ccccc3)nc21 | 1.63 | -1.3
41 | COc1cc([C@@H]2Oc3c(O)cc([C@H]4Oc5cc(O)cc(O)c5C(=O)[C@@H]4O)cc3[C@H]2CO)ccc1O | 2.27 | -0.46
42 | Cn1cc(-c2ccncc2)c(-c2ccc(OCc3ccc4ccccc4n3)cc2)n1 | 0.25 | 0.48

Row | SMILES | ΔTm (Peregrin (Homo sapiens)) [°C] | ΔTm [1] [°C]
43 | C[C@@H]1CN(Cc2ncccn2)C[C@H]1c1nc2c(cnn2C2CCOCC2)c(=O)[nH]1 | 0.83 | 0.17
44 | N[C@H](C(=O)O)[C@H](OCc1cccc(NC(=O)c2ccc(C(F)(F)F)cc2)c1)C(=O)O | 0.9 | -0.22
45 | CC(C)N(C[C@H]1O[C@@H](n2cnc3c(N)ncnc32)[C@H](O)[C@@H]1O)[C@H]1C[C@@H](CCc2nc3cc(C(C)(C)C)ccc3[nH]2)C1 | -1.35 | 0.82
46 | CC(C)(C)OC(=O)N1CCC[C@H]1C(=O)N1CCC[C@H]1C=O (Boc-Pro-Pro-aldehyde) | -0.14 | 0.01
47 | COCCOCCn1nc2c(c1C)-c1c(Cl)ccc3c1c(C)c(C(=O)O)n3CCCOc1cc(cc3c(F)c(Cl)ccc13)CCc1cc(nn1C)CSC2 | 0 | -5.22
48 | Cc1cc(/N=N/c2ccc(S(=O)(=O)Nc3ccccn3)cc2)c(N)cc1O | 5.09 | 0.17
49 | Cc1nccn1CC1CCc2c(c3ccccc3n2C)C1=O (configuration not stated) | 0.91 | -0.16
50 | NCCOCCOCCNC(=O)Cc1ccc(Nc2nc(NCc3ccc(F)cc3)nc(NCC3CCCCC3)n2)cc1 | 2.13 | 0.03
51 | COC[C@H](NC(=O)c1ccn(S(C)(=O)=O)c1)C(=O)Nc1nc(-c2cccc(-c3ccn(C)n3)c2)cs1 | -0.52 | 0.09
52 | O=c1[nH]c(N2CCC3(CC2)CN(CCO)c2cc(F)cc(F)c23)nc2c1CCCC2 | 1.75 | -0.52
53 | COc1nc(Nc2cc(S(C)(=O)=O)ccc2N[C@@H](c2cccc3c2OC(F)(F)O3)c2ncccc2Cl)nc(N2CCNCC2)n1 | 0 | -8.88
54 | CCN(CC)CCCC[C@H](NC(=O)[C@H](CC(C)C)NC(=O)[C@H](C)NC(=O)[C@H](Cc1ccccc1)NC(=O)c1ccc(C(C)(C)C)cc1)C(=O)N[C@@H](CO)C(=O)OC ({Benzoyl(4-tBu)}-FAL[Lys(Et2)]S-OMe) | -1.51 | 0.43
55 | C[C@]12CC[C@@H]3c4ccc(O)cc4C[C@@H](CCCCCCCCC[S+]([O-])CCCC(F)(F)C(F)(F)F)[C@H]3[C@@H]1CC[C@@H]2O (some centres not stated) | 0 | -3.24
56 | O=C1c2ccccc2C(=O)c2oc(-c3cccnc3)nc21 | 2.45 | -0.95
57 | CC(=O)N1CCC(c2ccc(C(=O)NC(=N)N)cc2C(F)(F)F)CC1 | 1.3 | 0.33
58 | CNC(=O)c1cnc(N2CCC[C@H](N)C2)nc1Nc1cc(C(C)C)nc(C(C)C)c1 | -0.82 | -3.52
59 | COc1cc2c(cc1OC)[C@H]1C[C@@H](OC(=O)[C@@H](N)C(C)C)[C@H](CC(C)C)CN1CC2 | -1.11 | 0.33
60 | N#Cc1nc2c(nc1C#N)-c1ccccc1C2=NOCc1ccccc1 | 5.25 | 0.78
61 | CC1C(C#N)=C(N)OC2=C1C(=O)CC(c1cccc3ccccc13)C2 (configuration not stated) | 1.86 | -1.52

Source: ChEMBL document CHEMBL5724796, “Tm Shift (DSF) assay results for EUbOPEN Chemogenomics Library” (2024)
